ChEMBL document CHEMBL5390317, “Novel Indane-Containing NBTIs with Potent Anti-Gram-Negative Activity and Minimal hERG Inhibition” (ACS Med Chem Lett, 2023)
Values after ≈ are worked out from the molar mass of the structure shown.

Key:
[1] = system: Escherichia coli; test: Antibacterial activity against Escherichia coli ATCC BAA-2340 assessed as inhibition in bacterial growth incubated for 20 to 24 hrs by CLSI based broth microdilution method; format: functional
[2] = system: Acinetobacter baumannii; test: Antibacterial activity against Acinetobacter baumannii ATCC BAA-747 assessed as inhibition in bacterial growth incubated for 20 to 24 hrs by CLSI based broth microdilution method; format: functional
[3] = system: Pseudomonas aeruginosa; test: Antibacterial activity against Pseudomonas aeruginosa NCTC 13437 assessed as inhibition in bacterial growth incubated for 20 to 24 hrs by CLSI based broth microdilution method; format: functional
[4] = system: Escherichia coli; test: Antibacterial activity against Escherichia coli K-12 BW25113 assessed as inhibition in bacterial growth incubated for 20 to 24 hrs by CLSI based broth microdilution method; format: functional
[5] = system: Staphylococcus aureus; test: Antibacterial activity against Staphylococcus aureus ATCC 29213 assessed as inhibition in bacterial growth incubated for 20 to 24 hrs by CLSI based broth microdilution method; format: functional; conditions: time 20-24 hrs
[6] = system: Escherichia coli; test: Antibacterial activity against Escherichia coli ATCC 35218 assessed as inhibition in bacterial growth incubated for 20 to 24 hrs by CLSI based broth microdilution method; format: functional
[7] = target: Voltage-gated inwardly rectifying potassium channel KCNH2 (Homo sapiens, UniProt Q12809); test: (§1) Inhibition of hERG potassium channel expressed in CHO cells by electrophysiological patch clamp assay; format: toxicity, cell-based; conditions: for IC20: human, cho
[8] = system: Escherichia coli; test: Antibacterial activity against Escherichia coli ATCC 25922 assessed as inhibition in bacterial growth incubated for 20 to 24 hrs by CLSI based broth microdilution method; format: functional; conditions: time 20-24 hrs
[9] = system: Staphylococcus aureus; test: Antibacterial activity against Staphylococcus aureus ATCC BAA-1556 assessed as inhibition in bacterial growth incubated for 20 to 24 hrs by CLSI based broth microdilution method; format: functional
[10] = system: Klebsiella pneumoniae; test: Antibacterial activity against Klebsiella pneumoniae ATCC 700603 assessed as inhibition in bacterial growth incubated for 20 to 24 hrs by CLSI based broth microdilution method; format: functional
[11] = system: Klebsiella pneumoniae; test: Antibacterial activity against Klebsiella pneumoniae ATCC 10031 assessed as inhibition in bacterial growth incubated for 20 to 24 hrs by CLSI based broth microdilution method; format: functional; conditions: time 20-24 hrs
[12] = system: Pseudomonas aeruginosa; test: Antibacterial activity against Pseudomonas aeruginosa ATCC 27853 assessed as inhibition in bacterial growth incubated for 20 to 24 hrs by CLSI based broth microdilution method; format: functional; conditions: time 20-24 hrs
[13] = system: Klebsiella pneumoniae; test: Antibacterial activity against Klebsiella pneumoniae ATCC BAA-1705 assessed as inhibition in bacterial growth incubated for 20 to 24 hrs by CLSI based broth microdilution method; format: functional; conditions: time 20-24 hrs
[14] = system: Escherichia coli; test: Antibacterial activity against Escherichia coli K-12 BW25113 deltaTolC assessed as inhibition in bacterial growth incubated for 20 to 24 hrs by CLSI based broth microdilution method; format: functional; conditions: time 20-24 hrs
[15] = Inhibition of Escherichia coli topoisomerase 4 incubated for 120 mins by Transcreener ADP2 FI assay
[16] = system: Acinetobacter baumannii; test: Antibacterial activity against Acinetobacter baumannii ATCC 51432 assessed as inhibition in bacterial growth incubated for 20 to 24 hrs by CLSI based broth microdilution method; format: functional
[17] = system: Pseudomonas aeruginosa; test: Antibacterial activity against Pseudomonas aeruginosa NCTC 11451 assessed as inhibition in bacterial growth incubated for 20 to 24 hrs by CLSI based broth microdilution method; format: functional
[18] = system: Klebsiella pneumoniae; test: Antibacterial activity against Klebsiella pneumoniae ATCC BAA-2146 assessed as inhibition in bacterial growth incubated for 20 to 24 hrs by CLSI based broth microdilution method; format: functional
[19] = target: DNA gyrase (Escherichia coli, UniProt P0AES4+P0AES6); test: Inhibition of Escherichia coli DNA gyrase incubated for 80 mins by Transcreener ADP2 FI assay; format: protein-complex assay
[20] = system: Acinetobacter baumannii; test: Antibacterial activity against Acinetobacter baumannii ATCC 19606 assessed as inhibition in bacterial growth incubated for 20 to 24 hrs by CLSI based broth microdilution method; format: functional; conditions: time 20-24 hrs
[21] = target: hERG (KCNH2) (Homo sapiens, UniProt Q12809); test: as §1; format: toxicity, cell-based; conditions: human, CHO cells expressing hERG
[22] = Escherichia coli, ATCC BAA-2340, time 20-24 hrs, read-out: MIC
[23] = Staphylococcus aureus, ATCC BAA-1556, time 20-24 hrs, read-out: MIC
[24] = Klebsiella pneumoniae, ATCC 700603, time 20-24 hrs, read-out: MIC
[25] = Acinetobacter baumannii, ATCC BAA-747, time 20-24 hrs, read-out: MIC
[26] = Pseudomonas aeruginosa, NCTC 13437, time 20-24 hrs, read-out: MIC
[27] = Escherichia coli, K-12 BW25113, time 20-24 hrs, read-out: MIC
[28] = Staphylococcus aureus, ATCC 29213, read-out: MIC
[29] = Escherichia coli, ATCC 35218, time 20-24 hrs, read-out: MIC
[30] = Acinetobacter baumannii, ATCC 51432, time 20-24 hrs, read-out: MIC
[31] = Pseudomonas aeruginosa, NCTC 11451, time 20-24 hrs, read-out: MIC
[32] = Klebsiella pneumoniae, ATCC BAA-2146, time 20-24 hrs, read-out: MIC

Voltage-gated inwardly rectifying potassium channel KCNH2, sequence (Q12809 whole entry): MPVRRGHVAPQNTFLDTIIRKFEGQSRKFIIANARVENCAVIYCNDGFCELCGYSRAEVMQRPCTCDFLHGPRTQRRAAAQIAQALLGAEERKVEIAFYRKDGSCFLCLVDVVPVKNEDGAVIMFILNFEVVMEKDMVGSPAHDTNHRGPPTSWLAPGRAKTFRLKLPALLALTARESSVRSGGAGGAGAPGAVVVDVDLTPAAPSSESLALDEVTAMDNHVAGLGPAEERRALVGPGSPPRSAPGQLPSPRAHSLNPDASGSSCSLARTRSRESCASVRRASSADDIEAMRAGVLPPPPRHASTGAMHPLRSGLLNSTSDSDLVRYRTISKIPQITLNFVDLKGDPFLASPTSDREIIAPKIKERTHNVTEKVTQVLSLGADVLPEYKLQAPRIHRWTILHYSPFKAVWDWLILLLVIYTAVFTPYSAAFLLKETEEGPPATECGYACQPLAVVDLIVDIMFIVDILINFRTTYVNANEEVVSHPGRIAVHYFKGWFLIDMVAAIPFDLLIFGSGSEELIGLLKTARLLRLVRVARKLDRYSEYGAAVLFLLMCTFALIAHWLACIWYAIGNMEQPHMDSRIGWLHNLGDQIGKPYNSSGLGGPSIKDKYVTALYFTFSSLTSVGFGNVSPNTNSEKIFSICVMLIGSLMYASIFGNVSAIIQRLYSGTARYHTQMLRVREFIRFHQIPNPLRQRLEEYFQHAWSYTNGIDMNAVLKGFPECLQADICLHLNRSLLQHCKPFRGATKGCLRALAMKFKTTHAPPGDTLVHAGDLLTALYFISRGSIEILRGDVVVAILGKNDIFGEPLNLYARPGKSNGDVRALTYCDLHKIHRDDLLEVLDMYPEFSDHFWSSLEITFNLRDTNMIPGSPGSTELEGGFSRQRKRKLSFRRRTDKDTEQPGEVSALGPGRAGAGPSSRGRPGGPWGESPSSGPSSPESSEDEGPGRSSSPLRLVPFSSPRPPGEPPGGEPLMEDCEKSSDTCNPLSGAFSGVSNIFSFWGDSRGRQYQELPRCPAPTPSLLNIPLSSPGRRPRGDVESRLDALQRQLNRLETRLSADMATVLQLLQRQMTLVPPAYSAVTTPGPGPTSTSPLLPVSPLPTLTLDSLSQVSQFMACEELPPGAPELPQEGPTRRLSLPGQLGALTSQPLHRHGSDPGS
hERG (KCNH2), sequence (Q12809 whole entry): as above

Compound	MIC ([1]; time 20-24 hrs) [µg/mL]	MIC ([2]; time 20-24 hrs) [µg/mL]	MIC ([3]; time 20-24 hrs) [µg/mL]	MIC ([4]; time 20-24 hrs)	IC50 [7] [µM]	IC20 [7] [µM]	MIC [1, 22] [µg/mL]	MIC [9, 23] [µg/mL]	MIC [10, 24] [µg/mL]	MIC [11] [µg/mL]	MIC [2, 25] [µg/mL]	MIC [3, 26] [µg/mL]	MIC [5, 28] [µg/mL]	MIC [6, 29] [µg/mL]	MIC [14] [µg/mL]	IC50 [15] [µM]	MIC [16, 30] [µg/mL]	MIC [17, 31] [µg/mL]	MIC [18, 32] [µg/mL]	IC50 [19] [µM]	further results
C[C@@H](C(=O)Nc1cc(F)c2c(c1)CC(CNCCC1CN(c3cnc4c(n3)NC(=O)CO4)C(=O)O1)C2)N(C)C (stereo in doubt; 2j)	0.25 (≈ 0.462 µM)	0.5 (≈ 0.923 µM)	2 (≈ 3.69 µM)	0.125 µg/mL (≈ 0.231 µM)	178	66	–	–	–	–	–	–	–	–	–	–	–	–	–	–	MIC [5]: 0.25 µg/mL (≈ 0.462 µM); MIC ([6]; time 20-24 hrs): 0.25 µg/mL (≈ 0.462 µM)
O=C(O)COc1cc(F)c2c(c1)CC(CNCCC1CN(c3ccc4c(n3)NC(=O)CO4)C(=O)O1)C2 (stereo not given)	–	–	–	–	–	–	> 64	> 64	> 64	16 (≈ 32 µM)	> 64	> 64	> 64	> 64	8 (≈ 16 µM)	0.37	> 64	> 64	> 64	0.6	MIC [8]: > 64 µg/mL; MIC [12]: > 64 µg/mL; MIC [13]: > 64 µg/mL; MIC [4, 27]: > 64 µg/mL; MIC [20]: > 64 µg/mL
C[C@H](C(=O)Nc1cc(F)c2c(c1)CC(CNCCC1CN(c3cnc4c(n3)NC(=O)CO4)C(=O)O1)C2)N(C)C (stereo in doubt; 2h)	–	0.125 (≈ 0.231 µM)	4 (≈ 7.39 µM)	–	126	55	–	–	–	–	–	–	–	–	–	–	–	–	–	–	MIC ([9]; time 20-24 hrs): 1 µg/mL (≈ 1.85 µM); MIC ([10]; time 20-24 hrs): 2 µg/mL (≈ 3.69 µM); MIC ([16]; time 20-24 hrs): 8 µg/mL (≈ 14.8 µM); MIC ([17]; time 20-24 hrs): 4 µg/mL (≈ 7.39 µM)
C[C@H](C(=O)Nc1cc(F)c2c(c1)CC(CNCCC1CN(c3cnc4c(n3)NC(=O)CO4)C(=O)O1)C2)N(C)C (stereo in doubt; 2g)	0.125 (≈ 0.231 µM)	–	–	–	251	81	–	–	–	–	–	–	–	–	–	0.013	–	–	–	0.026	MIC ([9]; time 20-24 hrs): 0.5 µg/mL (≈ 0.923 µM); MIC ([10]; time 20-24 hrs): 1 µg/mL (≈ 1.85 µM); MIC ([6]; time 20-24 hrs): 0.125 µg/mL (≈ 0.231 µM); MIC ([16]; time 20-24 hrs): 4 µg/mL (≈ 7.39 µM); MIC ([17]; time 20-24 hrs): 2 µg/mL (≈ 3.69 µM); MIC ([18]; time 20-24 hrs): 8 µg/mL (≈ 14.8 µM)
C[C@@H](C(=O)Nc1cc(F)c2c(c1)CC(CNCCC1CN(c3cnc4c(n3)NC(=O)CO4)C(=O)O1)C2)N(C)C (stereo in doubt; 2i)	–	–	–	<=0.06 ug ml-1	105	–	0.125 (≈ 0.231 µM)	1 (≈ 1.85 µM)	2 (≈ 3.69 µM)	≤ 0.06	0.25 (≈ 0.462 µM)	2 (≈ 3.69 µM)	0.25 (≈ 0.462 µM)	0.125 (≈ 0.231 µM)	≤ 0.06	–	8 (≈ 14.8 µM)	4 (≈ 7.39 µM)	8 (≈ 14.8 µM)	–	IC20 [21]: 33 µM
CN(C(=O)CN1CCC1)c1cc(F)c2c(c1)CC(CNCCC1CN(c3cnc4c(n3)NC(=O)CO4)C(=O)O1)C2 (stereo not given)	–	–	–	–	–	–	64 (≈ 116 µM)	> 64	> 64	> 64	> 64	64 (≈ 116 µM)	64 (≈ 116 µM)	32 (≈ 57.8 µM)	1 (≈ 1.81 µM)	0.15	> 64	> 64	> 64	1.1	MIC [8]: 32 µg/mL (≈ 57.8 µM); MIC [12]: 64 µg/mL (≈ 116 µM); MIC [13]: > 64 µg/mL; MIC [4, 27]: 16 µg/mL (≈ 28.9 µM); MIC [20]: > 64 µg/mL
